Test results published in patent publication US9315491B2 (DEVELOPMENT CENTER FOR BIOTECHNOLOGY, priority 2009, dated 2016).

Target: PI3K (p110α/p85α) (Homo sapiens (Human), UniProt P42336)
Assay: PI3K HTRF enzyme assay, p110α/p85α
Assay type: biochemical
Conditions: read-out: % inhibition @ 500 nM p110α; compound at 500 nM, 10 μM ATP
Experimental: Recombinant PI3K (p110α/p85α) and PI3K (p110β/p85α) were from Millipore. […] Briefly, the compounds of interest dissolved in 100% DMSO were dispensed in all wells, following which the mixture of PIP2 and enzyme was added. PI3K (p110α/p85α) and PI3K (p110β/p85α) enzyme reactions were initiated in the presence of 10 μM and 100 μM ATP, respectively, and incubated for 30 min at room temperature. STOP solution prepared 2 hours prior to use was added to stop reactions, and mixed well. Detection solution prepared 2 hours prior to use was added, and incubated at room temperature for 17 hours in the dark. […] HTRF ration was calculated as follows: […]

Sequence of PI3K (p110α/p85α) (P42336 whole entry, species assumed): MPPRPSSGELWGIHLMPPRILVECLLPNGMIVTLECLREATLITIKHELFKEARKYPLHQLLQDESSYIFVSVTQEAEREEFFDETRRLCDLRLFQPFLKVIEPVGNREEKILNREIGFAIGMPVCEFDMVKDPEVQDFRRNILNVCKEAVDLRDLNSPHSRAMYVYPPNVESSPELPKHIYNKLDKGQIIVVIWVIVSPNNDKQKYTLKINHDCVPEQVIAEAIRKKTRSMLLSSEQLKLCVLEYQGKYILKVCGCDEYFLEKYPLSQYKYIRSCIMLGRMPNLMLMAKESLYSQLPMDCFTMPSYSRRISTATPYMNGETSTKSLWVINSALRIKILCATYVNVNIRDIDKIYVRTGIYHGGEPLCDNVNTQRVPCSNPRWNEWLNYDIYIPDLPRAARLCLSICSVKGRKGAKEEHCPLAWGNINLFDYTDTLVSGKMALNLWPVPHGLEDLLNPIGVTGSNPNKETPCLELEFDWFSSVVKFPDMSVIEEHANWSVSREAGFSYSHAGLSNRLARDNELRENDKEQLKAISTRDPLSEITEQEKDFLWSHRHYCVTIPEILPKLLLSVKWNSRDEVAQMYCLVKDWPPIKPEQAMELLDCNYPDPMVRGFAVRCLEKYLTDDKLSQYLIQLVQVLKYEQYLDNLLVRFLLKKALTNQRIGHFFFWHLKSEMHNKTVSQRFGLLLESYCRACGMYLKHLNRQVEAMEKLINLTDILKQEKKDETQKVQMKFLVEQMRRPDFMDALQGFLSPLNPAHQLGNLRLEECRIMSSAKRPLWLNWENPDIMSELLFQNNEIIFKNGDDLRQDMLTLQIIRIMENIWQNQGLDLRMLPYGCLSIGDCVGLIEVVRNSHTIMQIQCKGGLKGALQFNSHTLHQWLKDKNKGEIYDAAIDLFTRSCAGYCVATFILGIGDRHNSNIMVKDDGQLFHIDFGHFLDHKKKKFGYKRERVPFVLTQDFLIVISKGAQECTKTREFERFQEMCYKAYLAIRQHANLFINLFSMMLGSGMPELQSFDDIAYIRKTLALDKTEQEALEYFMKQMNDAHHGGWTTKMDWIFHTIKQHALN
Sequence of PI3K (p110α/p85α) (P27986 whole entry partner, species assumed): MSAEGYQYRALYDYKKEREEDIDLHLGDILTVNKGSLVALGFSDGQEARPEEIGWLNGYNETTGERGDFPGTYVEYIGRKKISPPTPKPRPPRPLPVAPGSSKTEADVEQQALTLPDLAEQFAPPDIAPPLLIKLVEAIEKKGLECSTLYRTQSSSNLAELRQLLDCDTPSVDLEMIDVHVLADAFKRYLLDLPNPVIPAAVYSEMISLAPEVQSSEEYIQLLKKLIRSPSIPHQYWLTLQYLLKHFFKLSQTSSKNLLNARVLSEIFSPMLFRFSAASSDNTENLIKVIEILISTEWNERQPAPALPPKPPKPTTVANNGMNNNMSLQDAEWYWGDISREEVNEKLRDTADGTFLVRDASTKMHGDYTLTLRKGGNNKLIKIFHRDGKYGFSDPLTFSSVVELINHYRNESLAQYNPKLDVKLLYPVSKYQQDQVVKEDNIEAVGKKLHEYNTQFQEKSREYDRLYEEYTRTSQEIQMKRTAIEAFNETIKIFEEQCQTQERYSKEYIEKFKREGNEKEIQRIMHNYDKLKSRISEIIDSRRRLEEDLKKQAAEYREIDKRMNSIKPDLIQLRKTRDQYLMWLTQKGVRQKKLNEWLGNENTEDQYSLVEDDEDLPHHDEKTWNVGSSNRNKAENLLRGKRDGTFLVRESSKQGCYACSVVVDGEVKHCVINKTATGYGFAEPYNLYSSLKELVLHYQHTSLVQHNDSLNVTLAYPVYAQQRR

Row | Structure (SMILES) | inhibition at 0.5 µM
1 | CCOc1cnc(-c2ccc(NC(=O)Nc3ccc(N4CCOCC4=O)cc3)cc2)nc1N1CCOCC1 [MTR-0325, 1-[4-(5-Ethoxy-4-morpholin-4-yl-pyrimidin-2-yl)-phenyl]-3-[4-(3-oxo-morpholin-4-yl)-phenyl]-urea] | 91.5%
2 | CSc1cnc(-c2ccc(NC(=O)Nc3ccc(N4CCOCC4)c(F)c3)cc2)nc1N1CCOCC1 [MTR-0226, 1-(3-Fluoro-4-morpholin-4-yl-phenyl)-3-[4-(5-methylsulfanyl-4-morpholin-4-yl-pyrimidin-2-yl)-phenyl]-urea] | 45.7%
3 | CSc1c(Cl)nc(-c2ccc(NC(=O)Nc3cccnc3)cc2)nc1N1CCOCC1 [MTR-0197, 1-[4-(4-Chloro-5-methylsulfanyl-6-morpholin-4-yl-pyrimidin-2-yl)-phenyl]-3-pyridin-3-yl-urea] | 59.8%
4 | CCOC(=O)c1nc(-c2ccc(NC(=O)Nc3ccc(C(=O)NCCN(C)C)cc3)cc2)nc(N2CCOCC2)c1OCC [MTR-0277, 2-(4-{3-[4-(2-Dimethylamino-ethylcarbamoyl)-phenyl]-ureido}-phenyl)-5-ethoxy-6-morpholin-4-yl-pyrimidine-4-carboxylic acid ethyl ester] | 61.9%
5 | COc1cnc(-c2ccc(NC(=O)Nc3cccc(C(N)=O)c3)cc2)nc1N1CCOCC1 [MTR-0313, 3-{3-[4-(5-Methoxy-4-morpholin-4-yl-pyrimidin-2-yl)-phenyl]-ureido}-benzamide] | 86.9%
6 | COc1cnc(-c2ccc(NC(=O)Nc3cccnc3)cc2)nc1N1CCOCC1 [MTR-0228, 1-[4-(5-Methoxy-4-morpholin-4-yl-pyrimidin-2-yl)-phenyl]-3-pyridin-3-yl-urea] | 74.4%
7 | CSc1cnc(-c2ccc(NC(=O)Nc3ccc(N4CCOCC4=O)cc3)cc2)nc1N1CCOCC1 [MTR-0227, 1-[4-(5-Methylsulfanyl-4-morpholin-4-yl-pyrimidin-2-yl)-phenyl]-3-[4-(3-oxo-morpholin-4-yl)-phenyl]-urea] | 87%
8 | CCOc1cnc(-c2ccc(NC(=O)Nc3ccc(S(N)(=O)=O)cc3)cc2)nc1N1CCOCC1 [MTR-0326, 4-{3-[4-(5-Ethoxy-4-morpholin-4-yl-pyrimidin-2-yl)-phenyl]-ureido}-benzenesulfonamide] | 90.7%
9 | CCOC(=O)c1nc(-c2ccc(NC(=O)Nc3ccc(C(=O)N4CCOCC4)cc3)cc2)nc(N2CCOCC2)c1OCC [MTR-0278, 5-Ethoxy-2-(4-{3-[4-(morpholine-4-carbonyl)-phenyl]-ureido}-phenyl)-6-morpholin-4-yl-pyrimidine-4-carboxylic acid ethyl ester] | 58.6%
10 | COc1cnc(-c2ccc(NC(=O)Nc3ccc(C(=O)O)cc3)cc2)nc1N1CCOCC1 [MTR-0351, 4-{3-[4-(5-Methoxy-4-morpholin-4-yl-pyrimidin-2-yl)-phenyl]-ureido}-benzoic acid] | 52.3%

Results, then the molecule that gave them:

Row | inhibition at 0.5 µM | Structure (SMILES)
11 | 61.8% | CCOC(=O)c1nc(-c2ccc(NC(=O)Nc3ccc(NC(C)=O)cc3)cc2)nc(N2CCOCC2)c1OCC [MTR-0370, 2-{4-[3-(4-Acetylamino-phenyl)-ureido]-phenyl}-5-ethoxy-6-morpholin-4-yl-pyrimidine-4-carboxylic acid ethyl ester]
12 | 79.1% | CCOc1cnc(-c2ccc(NC(=O)Nc3ccc(NC(C)=O)nc3)cc2)nc1N1CCOCC1 [MTR-0442, N-(5-{3-[4-(5-Ethoxy-4-morpholin-4-yl-pyrimidin-2-yl)-phenyl]-ureido}-pyridin-2-yl)-acetamide]
13 | 63.4% | COc1cnc(-c2ccc(NC(=O)Nc3ccc(C(N)=O)cc3)cc2F)nc1N1CCOCC1 [MTR-0407, 4-{3-[3-Fluoro-4-(5-methoxy-4-morpholin-4-yl-pyrimidin-2-yl)-phenyl]-ureido}-benzamide]
14 | 98.7% | CCOc1cnc(-c2ccc(NC(=O)Nc3ccc(C(=O)N4CCOCC4)cc3)cc2)nc1N1CCOCC1 [MTR-0421, 1-[4-(5-Ethoxy-4-morpholin-4-yl-pyrimidin-2-yl)-phenyl]-3-[4-(morpholine-4-carbonyl)-phenyl]-urea]
